According to patent US10738119B2, “Combination therapy for hepatocellular carcinoma” (Health Research, Inc., priority 2014, dated 2020):
“Also recorded” adds a separate entry of the source.

Tests used:
Assay type in all cases: in vivo, human
[1] = test system: HCC patients; assay: PD-1 status and survival of HCC patients treated with sorafenib (Example 2)
Excerpt: The individual data points in the figures represent each patient.

[2] = test system: PD-1+ T cells; assay: Multi-parametric flow cytometry of PD-1+ T cells in PBMC of HCC patients pre and post sorafenib treatment; settings: pre vs post sorafenib
Method: (§1) FACS analysis was performed to measure peripheral blood Treg frequency using APC-H7 anti-CD3, V450 anti-CD4, PE anti-CD127, PE-Cy5 anti-CTLA-4 (BD Biosciences) and PE-Cy7 anti-PD-1, Alexa488 anti-Foxp3 (Biolegend). Detection of surface GARP levels was achieved by using mouse anti-human GARP (Enzo Life Sciences) followed by staining with PE F(ab′)2 goat anti-mouse IgG (Jackson ImmunoResearch Laboratories). Cells were incubated with normal mouse IgG for 10 min prior to surface and intracellular staining. Intracellular analysis for Foxp3 and CTLA-4 was performed after fixation and permeabilization of cells using intracellular staining kit (eBioscience) according to manufacturer's instructions. All samples were acquired on LSRII flow cytometer (BD Biosciences) and analyzed using Flowjo Model Fit (Tree Star).
(§2) Plasma levels of both pro-inflammatory and immunosuppressive cytokines were determined by ELISA.
This study was approved by institutional review board of Roswell Park Cancer Institute (RPCI), Buffalo, N.Y. and informed consent was obtained from all participants.
(§3) PBMCs were isolated immediately by Ficoll-Paque Plus density gradient centrifugation and cryopreserved. Plasma was isolated and stored at −80° C. and used for measurement of immunosuppressive and immunostimulatory cytokines as described previously. Frequency, phenotype and functionality of immune cells after blocking immune check points were analyzed by multi-parameter flow cytometry.

[3] = test system: Foxp3+ Tregs; assay: Multi-parametric flow cytometry of Tregs in PBMC of HCC patients pre and post sorafenib treatment; settings: pre vs post sorafenib
Method: as §1, §2
(§4) This study was approved by institutional review board of Roswell Park Cancer Institute (RPCI), Buffalo, N.Y. and informed consent was obtained from all participants. Heparinized peripheral blood samples were obtained from HCC patients before the initiation of sorafenib treatment and after four weeks or more of oral sorafenib treatment, through Data Bank and Biorepository at RPCI.
as §3

[4] = test system: CD11b+CD33+ MDSC; assay: Multi-parametric flow cytometry of MDSC in PBMC of HCC patients pre and post sorafenib treatment; settings: pre vs post sorafenib
Method: MDSC in the peripheral blood were detected using FITC anti-CD11b (eBioscience), PE-Cy5 anti-CD33, APC anti-CD14, V450 anti-HLA-DR (BD Biosciences).
as §2, §4, §3

[5] = test system: IL-10; assay: Plasma cytokine ELISA pre and post sorafenib treatment: IL-10; settings: pre vs post sorafenib
Method: (§5) Plasma isolated during PBMC separation was assayed to quantify the level of IFN-γ, IL-10, and TGF-β1 using specific ELISA kits according to the manufacturer's instructions (eBioscience).
as §2, §4, §3

[6] = test system: TGF-β1; assay: Plasma cytokine ELISA pre and post sorafenib treatment: TGF-β1; settings: pre vs post sorafenib
Method: as §5, §2, §4, §3

[7] = test system: IFN-γ; assay: Plasma cytokine ELISA pre and post sorafenib treatment: IFN-γ; settings: pre vs post sorafenib
Method: as §5, §2, §4, §3

[8] = test system: IL-1β; assay: Plasma cytokine ELISA pre and post sorafenib treatment: IL-1β; settings: pre vs post sorafenib, P<0.11, FIG. 17A
Method: as §5, §2, §4, §3

[9] = test system: HCC patients; assay: Overall survival of HCC patients stratified by greater or smaller decrease in immune parameters after sorafenib treatment
Method: FIGS. 15A-15D. […] Overall survival of patients was calculated based on the status of (FIG. 15A) absolute numbers of CD4^+PD-1^+ T cells (FIG. 15B) CD8^+PD-1^+ T cells (FIG. 15C) expression levels of PD-1 (MFI) on CD8^+ T cells (FIG. 15D) absolute numbers of CD4^+Foxp3^+ T cells.
FIGS. 18A-18R. […] Overall survival of patients was calculated based on the status of (FIG. 18A) frequency of CD4^+Foxp3^+ Tregs (FIG. 18B) frequency of GARP^+Foxp3^+ Tregs (FIG. 18C) expression levels of GARP (MFI) on Foxp3^+ Tregs (FIG. 18D) frequency of CTLA-4^+Foxp3^+ Tregs (FIG. 18E) absolute number of CD4^+Foxp3^+ Tregs (FIG. 18F) expression levels of CTLA-4 (MFI) on Foxp3^+ Tregs (FIG. 18G) frequency of CD11b^+CD33^+ MDSC (FIG. 18H) absolute number of CD11b^+CD33^+ MDSC (FIG. 18I) frequency of CD4^+PD-1^+ T cells (FIG. 18J) expression levels of PD-1 (MFI) on CD4^+ T cells (FIG. 18K) frequency of Foxp3^+PD-1^+ T cells (FIG. 18L) absolute number of Foxp3^+PD-1^+ T cells (FIG. 18M) expression levels of PD-1 (MFI) on Foxp3^+CD4^+ T cells (FIG. 18N) frequency of CD8^+PD-1^+ T cells (FIG. 18O) IL-10 (FIG. 18P) TGF-β1 (FIG. 18Q) IFN-γ (FIG. 18R) IL-1β.
as §2, §4

[10] = test system: HCC patients; assay: as above; settings: log-rank P<0.30, FIG. 18E

**Q.** With CNC(=O)c1cc(Oc2ccc(NC(=O)Nc3ccc(Cl)c(C(F)(F)F)c3)cc2)ccn1 [sorafenib] as the molecule, how does the mean survival time ([1]; group where PD-1 was decreased) read?
**A.** The mean survival time was 688 days.

**Q.** What about the mean survival ([1]; group which did not show a decrease in PD-1) of the same molecule?
**A.** The mean survival was 168 days.

**Q.** What about the “95% CI of change in expression levels (MFI) of PD-1 on CD4+ T cells after sorafenib treatment” value ([2]; FIG. 14B) of the same molecule?
**A.** The value was −56.51 to −12.09 MFI.

**Q.** What about the “expression levels (MFI) of PD-1 on CD4+ T cells after sorafenib treatment” value ([2]; P<0.02, FIG. 14B) of the same molecule?
**A.** The value was “significantly decreased”.

**Q.** What about the “absolute number of CD4+Foxp3+PD-1+ T cells after sorafenib treatment” value ([2]; P<0.04, FIG. 14C) of the same molecule?
**A.** Its value is “significantly decreased”.

**Q.** And the “absolute number of CD8+PD-1+ T cells after sorafenib treatment” value ([2]; P<0.15, FIG. 14E)?
**A.** The value was “did not show any significant decrease”.

**Q.** And the “frequency of CD8+PD-1+ T cells after sorafenib treatment” value ([2]; P<0.20, FIG. 14D)?
**A.** Its value is “did not show any significant decrease”.

**Q.** What about the “level of expression of PD-1 on CD8+ T cells (MFI) after sorafenib treatment” value ([2]; P<0.31, FIG. 14F) of the same molecule?
**A.** Its value is “did not show any significant decrease”.

**Q.** What about the “frequency of CD4+PD-1+ T cell after sorafenib treatment” value ([2]; n=19, P<0.01, FIG. 14A) of the same molecule?
**A.** The value was “significantly reduced”.

**Q.** And the “95% CI of change in frequency of CD3+CD4+Foxp3+ Tregs after sorafenib treatment” value ([3]; FIG. 16A)?
**A.** Its value is −0.44 to −1.16.

**Q.** And the “95% CI of change in absolute numbers of CD3+CD4+Foxp3+ Tregs after sorafenib treatment” value ([3]; FIG. 16B)?
**A.** The value was −9.48 to −3.55.

**Q.** What about the “95% CI of change in frequency of Foxp3+CTLA-4+ Tregs after sorafenib treatment” value ([3]; FIG. 16C) of the same molecule?
**A.** Its value is −3.18 to −0.82.

**Q.** What about the “95% CI of change in absolute number of Foxp3+CTLA-4+ Tregs after sorafenib treatment” value ([3]; FIG. 16D) of the same molecule?
**A.** Its value is −8.42 to −6.32.

**Q.** What about the “frequency of CD3+CD4+Foxp3+ Tregs after sorafenib treatment” value ([3]; P<0.02, FIG. 16A) of the same molecule?
**A.** The value was “significant decrease”.

**Q.** What about the “frequency of Foxp3+CTLA-4+ Tregs after sorafenib treatment” value ([3]; P<0.02, FIG. 16C) of the same molecule?
**A.** The value was “Marked reduction”.

**Q.** And the “absolute numbers of CD3+CD4+Foxp3+ Tregs after sorafenib treatment” value ([3]; P<0.05, FIG. 16B)?
**A.** The value was “significant decrease”.

**Q.** What about the “absolute number of Foxp3+CTLA-4+ Tregs after sorafenib treatment” value ([3]; P<0.05, FIG. 16D) of the same molecule?
**A.** Its value is “Marked reduction”.

**Q.** What about the “frequency of CD11b+CD33+ MDSC after sorafenib treatment” value ([4]; P<0.61, FIG. 16E) of the same molecule?
**A.** Its value is “did not significantly impact; also recorded: did not have any significant influence”.

**Q.** And the “absolute number of CD11b+CD33+ MDSC after sorafenib treatment” value ([4]; P<0.92, FIG. 16F)?
**A.** The value was “did not significantly impact; also recorded: did not have any significant influence”.

**Q.** What about the “95% CI of change in levels of IL-10 after sorafenib treatment” value ([5]; FIG. 17B) of the same molecule?
**A.** Its value is −63.30 to −4.9.

**Q.** And the “plasma levels of IL-10 after sorafenib treatment” value ([5]; P<0.03, FIG. 17B)?
**A.** Its value is “significant decrease”.

**Q.** What about the “95% CI of change in levels of TGF-β1 after sorafenib treatment” value ([6]; FIG. 17C) of the same molecule?
**A.** Its value is −151.50 to −48.55.

**Q.** What about the “plasma levels of TGF-β1 after sorafenib treatment” value ([6]; P<0.03, FIG. 17C) of the same molecule?
**A.** The value was “significant decrease”.

**Q.** What about the “95% CI of change in levels of IFN-γ after sorafenib treatment” value ([7]; FIG. 17D) of the same molecule?
**A.** Its value is −1.07 to 23.64.

**Q.** What about the “plasma levels of IFN-γ after sorafenib treatment” value ([7]; P<0.04, FIG. 17D) of the same molecule?
**A.** The value was “concomitant increase; also recorded: significantly increased”.

**Q.** And the “plasma levels of IL-1β after sorafenib treatment” value [8]?
**A.** The value was “did not show any significant decrease”.

**Q.** What about the “overall survival, greater decrease in PD-1 expression levels on CD4+ T cells after sorafenib” value ([9]; AFT models, AFT β P<0.04) of the same molecule?
**A.** Its value is “better overall survival benefit”.

**Q.** And the “overall survival, greater decrease in absolute number of MDSC after sorafenib” value ([9]; AFT models, AFT β P<0.05)?
**A.** The value was “better prognosis; also recorded: significant correlation with overall survival”.

**Q.** What about the “overall survival, greater decrease in percentage of MDSC after sorafenib” value ([9]; AFT models, AFT β P<0.05) of the same molecule?
**A.** The value was “better prognosis; also recorded: significant correlation with overall survival”.

**Q.** And the “overall survival vs absolute numbers of Foxp3+ Tregs post-sorafenib treatment” value ([9]; log-rank P<0.01, FIG. 15D)?
**A.** The value was “statistically significant improvement in overall survival; also recorded: significant correlation with overall survival”.

**Q.** What about the “overall survival, greater vs smaller decrease in absolute number of PD-1+CD4+ T cells after sorafenib” value ([9]; log-rank P<0.04, FIG. 15A) of the same molecule?
**A.** Its value is “significant interaction term; also recorded: significantly improved overall survival rate”.

**Q.** What about the “overall survival, greater vs smaller decrease in absolute number of CD8+PD-1+ T cells after sorafenib” value ([9]; log-rank P<0.04, FIG. 15B) of the same molecule?
**A.** The value was “significant interaction term; also recorded: significant improvement in overall survival”.

**Q.** What about the “overall survival, greater vs smaller decrease in PD-1 expression levels on CD8+ T cells after sorafenib” value ([9]; log-rank P<0.04, FIG. 15C) of the same molecule?
**A.** Its value is “significant improvement in overall survival”.

**Q.** And the “overall survival, greater vs smaller decrease in frequency of CTLA-4+ Tregs after sorafenib” value ([9]; log-rank P<0.51, FIG. 18D)?
**A.** Its value is “no significant differences in the overall survival”.

**Q.** And the “overall survival vs changes in levels of TGF-β1 after sorafenib” value ([9]; log-rank P<0.61, FIG. 18P)?
**A.** Its value is “none of these cytokines showed any significant association; also recorded: non-significant interaction term”.

**Q.** And the “overall survival vs changes in levels of IFN-γ after sorafenib” value ([9]; log-rank P<0.62, FIG. 18Q)?
**A.** Its value is “none of these cytokines showed any significant association; also recorded: non-significant interaction term”.

**Q.** And the “overall survival vs changes in levels of IL-10 after sorafenib” value ([9]; log-rank P<0.73, FIG. 18O)?
**A.** Its value is “none of these cytokines showed any significant association; also recorded: non-significant interaction term”.

**Q.** And the “overall survival vs changes in levels of IL-1β after sorafenib” value ([9]; log-rank P<0.92, FIG. 18R)?
**A.** Its value is “non-significant interaction term”.

**Q.** And the “overall survival, greater vs smaller decrease in absolute number of CTLA-4+ Tregs after sorafenib” value [10]?
**A.** The value was “no significant differences in the overall survival”.
